Experimental findings from patent US20040122076A1, “Sulphonamides for the treatment of central nervous system diseases” (priority 2000, published 2004) are described below.

In this assay the target is T1, human recombinant 5-HT6 receptors (Homo sapiens, UniProt P50406).
T1 construct: purchased Receptor Biology, Inc., Beltsville Md; 20705, USA RB-HS6; host or cells: HEK293 cells (membranes)
As to the kind of experiment: Binding to human recombinant 5-HT6 receptors ([3H]-LSD displacement, HEK293 membranes). The following applies: [3H]-LSD 1 nM, membranes of HEK293 cells, 1 hour at 37° C.; Ki=IC50/(1+L/KD). How it is done: 1. Binding to Human Recombinant 5-HT6 Receptors
The binding of the compounds according to the invention to human recombinant 5-HT6 receptors can be determined as follows. Membranes of HEK293 cells which express human recombinant 5-HT6 receptors (RB-HS6, Receptor Biology, Inc., Beltsville Md. 20705, USA) were suspended in the ratio 1:40 in ice-cold sample buffer consisting of 50 mM tris HCl, 5 mM MgCl2, 0.5 mM EDTA; 0.1% ascorbic acid and 10 μM pargyline (pH 7.4) and homogenized (Polytron). 100 μl of membrane suspension, 50 μl of [^3H]-LSD (specific activity 75 Ci/mmol, final concentration […]) and 50 μl of test substance solution (8 different concentrations, 10^−5 to 10^−9 M) were incubated for 1 hour at 37° C. and the [^3H]-LSD bound to the receptor was then separated from the free [^3H]-LSD by filtration. The radioactivity retained by the filter was determined by scintillation spectroscopy. All tests were carried out in triplicate determinations. The IC50 values were calculated using the program GraphPadPrism (Hill equation, special: one-site competition). The inhibition constant of the test substance Ki was determined from the IC50 value of the compounds (concentration of the test substance at which 50% of the ligand bound to the receptor is displaced), the dissociation constant KD and the concentration L of [^3H]-LSD (Ki=IC50/(1+L/KD)).

Molecules are shown by their SMILES.

T1 sequence (P50406 whole entry): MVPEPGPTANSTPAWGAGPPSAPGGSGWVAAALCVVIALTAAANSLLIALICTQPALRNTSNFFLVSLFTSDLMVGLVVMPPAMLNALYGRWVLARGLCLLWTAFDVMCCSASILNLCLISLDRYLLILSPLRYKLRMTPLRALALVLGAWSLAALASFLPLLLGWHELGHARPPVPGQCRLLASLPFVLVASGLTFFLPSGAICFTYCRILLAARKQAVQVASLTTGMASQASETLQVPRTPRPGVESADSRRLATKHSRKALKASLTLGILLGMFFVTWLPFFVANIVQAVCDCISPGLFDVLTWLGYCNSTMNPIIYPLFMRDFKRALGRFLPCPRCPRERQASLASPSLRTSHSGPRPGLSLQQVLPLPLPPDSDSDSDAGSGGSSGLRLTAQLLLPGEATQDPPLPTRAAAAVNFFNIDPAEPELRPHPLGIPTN

As to `CCn1ccc2ccc(S(=O)(=O)Nc3cccc(NC(=O)C(C)(C)C)c3)cc21` [Example 44], the Ki turned out to be 12 nM.

The term Ki denotes a measure of affinity in units of concentration, obtained from inhibition or displacement.
